The record followed here is publication PMC9781217, “Discovery of Novel and Selective G-Protein Coupled Receptor 120 (GPR120) Agonists for the Treatment of Type 2 Diabetes Mellitus” (Molecules, 2022).

Each structure is given as a SMILES string. Where two headings read alike, the source gives them in different places.

Data set [1] is described as follows: Pharmacokinetic analysis in C57BL/6 mice. In kind it is in vivo. How it is done: The pharmacokinetic profiles of 10k and 14d were obtained from C57BL/6 mice. […] The pharmacokinetic profiles traces were shown in the Supplementary Materials (Figure S1, see Supporting Materials).
Plasma was collected and precipitated using two volumes of acetonitrile containing an internal standard. This was followed by centrifugation at 15.680 g for 10 min after vortexing for 5 min. The supernatant was diluted with acetonitrile and 10 µL of the supernatant was analyzed by Waters LC-PDA-MS/MS to determine plasma drug levels. Pharmacokinetic parameters were determined using mean data from four mice at each time point. Statistical analysis of the data was performed using the DAS 2.1.1 statistical software program (BioVoice, Shanghai, China).

Data set [2] has as its system C57BL/6 mice. In words: Oral glucose tolerance test (OGTT) in normal C57BL/6 mice. In kind it is in vivo. How it is done: GPR120 agonists have been reported to increase GLP-1 secretion and improve glucose tolerance in vivo [28]. […] Compound 14d was orally administered at doses of 3, 10, 30, and 100 mg/kg, 30 min before the oral glucose challenge at a dose volume of 3 g/kg. Glucose levels were measured from 30 min before glucose challenge to 120 min after the glucose challenge.
Normal male C57BL/6 mice aged 9 weeks were used for the OGTT for compound 14d. C57BL/6 mice were weighed and randomly divided into six groups (eight mice per group) after 12 h of fasting. The test compounds were dissolved in 0.5% MC and vortexed before the study initiation. […] The exact dose volume was calculated separately for each animal. Blood samples were collected via the tail tip 30 min before the compound dose, at t = 0 (immediately before glucose loading), and 15, 30, 60, and 120 min after glucose loading. Blood glucose levels were measured using blood glucose test strips (Sannuo GA-3 type; Changsha, China). Glucose values were entered into an Excel sheet and plotted using GraphPad Prism software.

Data set [3] concerns DIO mice. The data set is described as follows: Anti-hyperglycemic effects (OGTT, insulin) in DIO mice. The following applies: 20 mg/kg oral. The class given is in vivo, C57BL/6 mice. How it is done:
Blood samples were collected with retro-orbital sinus puncture, and glucose levels were measured in accordance with the OGTT in normal mice. Plasma insulin levels were measured using a mouse insulin RIA kit (Beijing North Institute of Biological Technology, Beijing, China).

The target of data set [4] is T1, human GPR120 (hGPR120) (Homo sapiens, UniProt Q5NUL3).
T1 sequence (Q5NUL3 1-361): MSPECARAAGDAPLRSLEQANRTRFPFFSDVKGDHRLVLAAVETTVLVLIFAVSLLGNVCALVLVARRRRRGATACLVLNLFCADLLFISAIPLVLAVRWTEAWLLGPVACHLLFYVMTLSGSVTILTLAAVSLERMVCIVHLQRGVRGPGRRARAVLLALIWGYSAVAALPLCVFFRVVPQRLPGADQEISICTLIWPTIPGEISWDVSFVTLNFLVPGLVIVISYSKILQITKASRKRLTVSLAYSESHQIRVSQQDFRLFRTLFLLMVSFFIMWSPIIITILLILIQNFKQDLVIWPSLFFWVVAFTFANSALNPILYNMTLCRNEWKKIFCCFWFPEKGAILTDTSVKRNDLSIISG
The data set is described as follows: Calcium flux assay in hGPR120-transfected CHO cells. For orientation: Calcium assays in cells follow changes in intracellular calcium, usually with a dye or a luminescent sensor.
Protocol: (§1) A calcium flux assay was performed to assess the agonist activity of the test compounds against the hGPR120 (mGPR120) and hGPR40 (mGPR40) receptors. […] The medium in the wells was gently discarded, and the wells were washed with Hank’s balanced salt solution (HBSS; 100 μL per well). […] The cells were then washed thrice in HBSS and allowed to equilibrate for 10 min before conducting the assay. Test compounds dissolved in dimethyl sulfoxide were diluted in HBSS at various concentrations and added to Fluo-4 AM-containing cells, and intracellular Ca^2+ concentrations were measured using FlexStation3 Molecular Devices. The EC50 value of each compound was calculated using GraphPad Prism software (version 5.0; GraphPad Software, San Diego, CA, USA).

Data set [5] concerns the target mouse GPR40 (mGPR40) (Mus musculus, UniProt Q76JU9). The data set is described as follows: Calcium flux assay in CHO cells expressing mouse GPR40.
Protocol: as §1
The target in data set [6] is T2, mouse GPR120 (mGPR120) (Mus musculus, UniProt Q7TMA4).
T2 sequence (Q7TMA4 1-361): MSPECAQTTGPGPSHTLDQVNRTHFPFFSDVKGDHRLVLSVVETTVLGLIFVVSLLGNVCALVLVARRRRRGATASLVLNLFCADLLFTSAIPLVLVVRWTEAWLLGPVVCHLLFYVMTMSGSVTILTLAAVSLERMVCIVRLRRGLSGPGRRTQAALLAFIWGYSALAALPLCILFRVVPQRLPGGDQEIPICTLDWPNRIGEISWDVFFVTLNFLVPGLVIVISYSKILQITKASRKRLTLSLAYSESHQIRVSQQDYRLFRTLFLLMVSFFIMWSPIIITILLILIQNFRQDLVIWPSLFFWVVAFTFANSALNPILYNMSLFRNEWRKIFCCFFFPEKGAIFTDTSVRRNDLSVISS
In words: Calcium flux assay in CHO cells expressing mouse GPR120.
Protocol: as §1

Setting [7] is: hGPR120, concentration response curve.
Setting [8] is: mGPR120, concentration response curve.

mouse GPR40 (mGPR40), sequence (Q76JU9 whole entry): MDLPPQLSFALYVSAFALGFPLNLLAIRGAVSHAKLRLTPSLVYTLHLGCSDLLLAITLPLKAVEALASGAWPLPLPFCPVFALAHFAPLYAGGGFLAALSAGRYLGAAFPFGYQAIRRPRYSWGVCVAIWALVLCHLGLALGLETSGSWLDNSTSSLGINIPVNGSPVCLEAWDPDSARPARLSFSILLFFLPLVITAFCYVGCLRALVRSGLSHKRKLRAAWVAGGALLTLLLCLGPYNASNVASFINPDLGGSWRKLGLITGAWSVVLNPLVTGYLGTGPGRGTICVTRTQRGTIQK

By Tmax is commonly meant the time from dosing to the highest level. The term Cmax denotes the highest concentration seen after dosing. What is called AUC is concentration integrated over time. Read a high AUC as high exposure. One may read the melting point as the temperature of the solid-liquid transition. Broadly, the EC50 is the concentration that produces a half-maximal response. A word on the Hill slope: it is a measure of the steepness of the concentration-response curve. Consider `O=C(O)CCCOc1ccc(COc2cc(F)ccc2-c2ccc(F)cc2)cc1F` [Compound 14d, 4-(4-(((4,4′-difluoro-[1,1′-biphenyl]-2-yl)oxy)methyl)-2-fluorophenoxy)butanoic acid], for which the melting point lay in the range of 89 to 91 °C. Moreover, the “metabolic stability in vivo” value in data set [1] (C57BL/6 mice, pharmacokinetics, in words) is given as “excellent metabolic stability”. For the same molecule, the Tmax in data set [1] (male, mouse, plasma, po, C57BL/6 mice, 10 mg/kg gavage) was 0.5 h. In data set [1] (male, mouse, plasma, po, C57BL/6 mice, 10 mg/kg gavage, 0.5% MC, mean ± SD of four mice), this molecule yielded a maximum concentration (Cmax) of 2650 ± 288 ng/mL. The AUC in data set [1] (male, mouse, plasma, po, C57BL/6 mice, 10 mg/kg gavage, mean ± SD of four mice) turned out to be 5900 ± 584 ng·h/mL. Further, in data set [1] (male, mouse, plasma, po, C57BL/6 mice, 10 mg/kg gavage, mean ± SD of four mice, read-out: t1/2 (converted)), the half-life is 1.6 ± 0.4 h. Further, in data set [1] (rodents, in words), the clearance entry was “low clearance” and the half-life result was “long half-life”. The “blood glucose in OGTT” value in data set [2] (30 mg/kg oral, glucose 3 g/kg, superior to TUG-891) was “significant reduction in blood glucose”. Besides, in data set [2] (3, 10, 30, 100 mg/kg oral), the “dose dependence of glucose lowering and glucose AUC” value is “dose-dependent”. Further, in data set [2] (OGTT, 30 mg/kg oral, after 120 min, compared with glucose alone, p < 0.001), the “reduction of plasma glucose AUC” value worked out at 25%. In addition, in data set [2] (normal C57BL/6 mice, during the experiment), the “hypoglycemia during OGTT” value was “no hypoglycemia was observed”. Besides, the hypoglycemic side effects entry in data set [2] (normal mice, even at a dose of 100 mg/kg) is listed as “no hypoglycemic side effects were detected”. In data set [3] (compared to vehicle-treated mice), the “insulin levels 30 min after the glucose challenge” value is on record as “significantly increased insulin levels”. Further, the “glucose AUC0–120 min” value in data set [3] (glucose 2 g/kg) is recorded as “significantly lower than that of vehicle-treated mice”. Moreover, the EC50 in data set [4] was 37.5 nM. Moreover, in data set [4] (setting [7]), the Hill slope is 0.9540 and the “Hill slope (95%CI)” value is 0.8259-1.0820. For the same molecule, the “Agonist type from dose-dependent curves” value in data set [4] (hGPR120 and mGPR120) was “full agonist”. Further, in data set [5], the 50% effective concentration (EC50) turned out to be 12700 nM. Moreover, the EC50 in data set [6] worked out at 83.2 nM. Moreover, in data set [6] (setting [8]), the Hill slope was 0.7745 and the “Hill slope (95%CI)” value was 0.5397-1.0090. Also, the Selectivity in data set [6] (mGPR120 over mGPR40) stood at 152.6.
